This passage reports IC50 results from patent publication US11021545B2, “Multimodal cancer therapy comprising chimeric viral/nonviral nanoparticles and anticancer agents” (The Regents of the University of California, priority 2018, dated 2021).

In this assay the test system is BCR-ABL+ FL 5.12 p190 cells. The experiment in a line: cells. The following applies: Mus musculus, FL5.12, read-out: IC50 of dasatinib without ChNPs.

SMILES strings stand for the structures.

Experimental: Viability was tested three days after delivery. […] After 24 h, PBS, BIM AAV alone, MCL-1 siRNA alone, mixture of BIM AAV and siRNA, and various ChNPs (Null/Scr, Null/MCL-1, BIM/Scr, BIM/MCL-1 ChNPs) are added to the cells at different BIM AAV and MCL-1 siRNA concentrations. To measure cell viability, the cells maintained with fresh media everyday are pelleted by centrifugation (2000 rpm, 5 min, 4° C.) and resuspended in fresh media. The cells in 90 μL medium then are transferred into a 96-well plate where MTT (5 mg/mL in 10 μL PBS) is subsequently added. After 4 h of incubation at 37° C., the well plate is centrifuged at 2000 rpm and 4° C. for 5 min, and the media is replaced by 100 μL DMSO per well. The relative cell viability is quantified by comparing absorptions at 570 nm using a microplate reader (Synergy H1, Biotek), based on the absorption in the wells containing nontreated cells.

The IC50 is the concentration that inhibits the measured activity by half. Take `Cc1nc(Nc2ncc(C(=O)Nc3c(C)cccc3Cl)s2)cc(N2CCN(CCO)CC2)n1` [dasatinib]: the concentration for half-maximal inhibition (IC50) worked out at 1 nM.
